Tests used:
[1] = molecular target: T1, trehalose phosphorylase (Thermoanaerobacter brockii, UniProt Q8L164); assay: Transglucosylation to glucuronic acid and C-6DGs by trehalose phosphorylase (GC analysis); assay type: biochemical, Thermoanaerobium brockii; details: 1% (w/v) glucuronic acid or C-6DG as acceptor, 1.4% (w/v) β-G1P, one unit/ml enzyme, pH 6.0, 50° C., 24 hours; peak area of transferred product to total peak area
T1 construct: cells collected from the culture were disrupted by ultrasonication and then, the supernatant was collected; made in house; host or cells: Thermoanaerobium brockii ATCC 35047 (natural producer, not recombinant); purified by DEAE, butyl and gel filtration chromatography
T1 sequence (Q8L164 1-774): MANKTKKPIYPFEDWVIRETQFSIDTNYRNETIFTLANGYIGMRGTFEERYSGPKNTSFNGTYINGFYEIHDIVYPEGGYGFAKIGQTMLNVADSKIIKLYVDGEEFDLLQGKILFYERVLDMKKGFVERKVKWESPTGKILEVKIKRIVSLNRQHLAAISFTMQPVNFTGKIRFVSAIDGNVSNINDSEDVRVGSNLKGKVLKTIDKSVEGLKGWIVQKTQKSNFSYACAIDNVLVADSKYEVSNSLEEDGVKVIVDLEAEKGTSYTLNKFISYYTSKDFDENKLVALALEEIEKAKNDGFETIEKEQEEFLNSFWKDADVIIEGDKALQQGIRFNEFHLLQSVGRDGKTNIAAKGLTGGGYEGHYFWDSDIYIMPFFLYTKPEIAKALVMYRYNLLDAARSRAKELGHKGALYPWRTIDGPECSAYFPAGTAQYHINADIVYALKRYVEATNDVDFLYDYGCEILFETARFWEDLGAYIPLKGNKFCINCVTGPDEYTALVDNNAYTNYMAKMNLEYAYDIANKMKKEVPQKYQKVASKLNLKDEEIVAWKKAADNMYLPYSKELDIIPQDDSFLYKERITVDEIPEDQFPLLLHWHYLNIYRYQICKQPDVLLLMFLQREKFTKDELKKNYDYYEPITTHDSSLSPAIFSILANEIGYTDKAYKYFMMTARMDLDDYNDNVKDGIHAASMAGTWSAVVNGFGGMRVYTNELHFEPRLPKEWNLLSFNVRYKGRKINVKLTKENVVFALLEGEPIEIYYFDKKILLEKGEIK
Method: (§1) An aqueous solution containing 1% (w/v) of either of polyalcohols (all reagent grade), shown in Table 1 below, 1.4% (w/v) of a reagent grade β-G1P, one unit/ml of trehalose phosphorylase obtained in Example 1-1, and 50 mM acetate buffer (pH 6.0) was prepared and followed by the enzyme reaction while keeping the solution at 50° C. for 24 hours. After the reaction, a portion of each reaction mixture was withdrawn, dried, and dissolved in pyridine for gas chromatography analysis (hereinafter, simply abbreviated as “GC”). In GC analysis, a stainless steel column (internal diameter 3 mm×length 2 m) packed with 2% Silicon OV-17/Chromosorb W”, commercialized by GL Science, Tokyo, Japan) was used. Nitrogen gas was used as carrier gas and the flow rate was set to 40 ml/min. A column oven was controlled to rise a column temperature at 160° C. to 320° C. in a rate of 7.5° C./min after the injection of samples. A hydrogen-flame ion detector was used for the detection. An aqueous solution with the same composition except for trehalose phosphorylase was prepared, kept with the same condition described above, and analyzed by GC by the same condition to confirm the chromatogram of non-reacted polyalcohol and β-G1P. Transfer of a glucosyl residue to each polyalcohol was judged by detecting new peak(s) in the chromatogram of the reaction mixture. The amount of glucosyl-transferred polyalcohol formed by the reaction was estimated based on a peak area of the glucosyl-transferred polyalcohol to the total peak area including that of non-reacted (residual) polyalcohol, and classified into three groups of the area of 60% or higher, “+++”; 30% or higher but less than 60%, “++”; and 0% or higher but less than 30%, “+”.
An aqueous solution containing 1% (w/v) of any one of glucuronic acid or C-6DGs (all reagent grade), shown in Table 2 below, 1.4% (w/v) of a reagent grade β-G1P, one unit/ml of trehalose phosphorylase obtained in Example 1-1, and 50 mM acetate buffer (pH 6.0) was prepared and followed by the enzyme reaction while keeping the solution at 50° C. for 24 hours. After the reaction, each reaction mixture was analyzed by GC described in Example 1-2. In the same manner as described in Example 1-2, the amount of a glucosyl-transferred product formed by the reaction was estimated based on a peak area of the glucosyl-transferred product to the total peak area including that of non-reacted (remaining) glucuronic acid or C-6DGs, and classified into three groups of the area of 60% or higher, “+++”; 30% or higher but less than 60%, “++”; and 0% or higher but less than 30%, “+”.

[2] = molecular target: T1, trehalose phosphorylase; assay: Transglucosylation to polyalcohols by trehalose phosphorylase (GC analysis); assay type: biochemical, Thermoanaerobium brockii; parameters: key to Transfer of a glucosyl residue (Transglucosylation): +++: the area of 60% or higher; ++: 30% or higher but less than 60%; +: 0% or higher but less than 30%; −: Transglucosylation was not detected; details: 1% (w/v) polyalcohol as acceptor, 1.4% (w/v) β-G1P, pH 6.0, 50° C., 24 hours; for Transfer of a glucosyl residue (Transglucosylation): one unit/ml enzyme, peak area of transferred product to total peak area
Method: as §1

Row | Compound | Transfer of a glucosyl residue (Transglucosylation) [1] | Transfer of a glucosyl residue (Transglucosylation) [2] | Transglucosylation to the polyalcohol, stated in words [2]
1 | O=C[C@H](O)[C@@H](O)[C@H](O)[C@H](O)C(=O)O [Glucuronic acid] | + (0% or higher but less than 30%) | – | –
2 | OC[C@@H](O)[C@@H](O)CO [Erythritol] | – | + (0% or higher but less than 30%) | transferred a glucosyl residue
3 | O[C@H]1[C@H](O)[C@@H](O)[C@H](O)[C@@H](O)[C@H]1O [myo-Inositol] | – | ++ (30% or higher but less than 60%) | transferred a glucosyl residue
4 | OC[C@H]1O[C@H](OC[C@H]2O[C@H](OC[C@H]3OC(O)[C@H](O)[C@@H](O)[C@@H]3O)[C@H](O)[C@@H](O)[C@@H]2O)[C@H](O)[C@@H](O)[C@@H]1O (stereo partly shown) [Isomaltotriose] | +++ (the area of 60% or higher) | – | –
5 | OC[C@@H](O)[C@@H](O)[C@@H](O)CO [Ribitol] | – | + (0% or higher but less than 30%) | transferred a glucosyl residue
6 | OCC(O)CO [Glycerol] | – | + (0% or higher but less than 30%) | transferred a glucosyl residue
7 | Gentiobiose | +++ (the area of 60% or higher) | – | –
8 | OC[C@H]1O[C@H](O[C@H]2[C@H](O)[C@@H](O)[C@@H](OC[C@H]3OC(O)[C@H](O)[C@@H](O)[C@@H]3O)O[C@@H]2CO)[C@H](O)[C@@H](O)[C@@H]1O (stereo partly shown) [Isopanose] | +++ (the area of 60% or higher) | – | –
9 | OC[C@@H](O)[C@@H](O)[C@H](O)[C@@H](O)CO [Sorbitol] | – | −* | no transglucosylation
10 | OC[C@H]1O[C@H](OCC2O[C@@H](O)[C@H](O)[C@@H](O)[C@@H]2O)[C@H](O)[C@@H](O)[C@H]1O (stereo partly shown) [Melibiose] | +++ (the area of 60% or higher) | – | –
11 | OC[C@H]1O[C@H](OC[C@H]2OC(O)[C@H](O)[C@@H](O)[C@@H]2O)[C@H](O)[C@@H](O)[C@@H]1O (stereo partly shown) [Isomaltose] | +++ (the area of 60% or higher) | – | –
